Laboratory results from patent US20250376497A1, “ARTIFICIAL PROTEIN AND USES THEREOF” (priority 2022, published 2025).
Values joined by “and” are separate entries in the source; they are usually repeats but may differ in a detail not shown here. Identical values can stand only once. “Also recorded” adds a separate entry of the source. Bridge positions count the residues as written; N and C are the ends. Ends that are not written are not given here.

How the values were obtained:
[1] = target: T1, OR2 (Homo sapiens, UniProt O43614); design: host or cells: HEK-293T; conditions: Lang et al., 2004; cited from earlier work
T1 sequence (O43614 1-444): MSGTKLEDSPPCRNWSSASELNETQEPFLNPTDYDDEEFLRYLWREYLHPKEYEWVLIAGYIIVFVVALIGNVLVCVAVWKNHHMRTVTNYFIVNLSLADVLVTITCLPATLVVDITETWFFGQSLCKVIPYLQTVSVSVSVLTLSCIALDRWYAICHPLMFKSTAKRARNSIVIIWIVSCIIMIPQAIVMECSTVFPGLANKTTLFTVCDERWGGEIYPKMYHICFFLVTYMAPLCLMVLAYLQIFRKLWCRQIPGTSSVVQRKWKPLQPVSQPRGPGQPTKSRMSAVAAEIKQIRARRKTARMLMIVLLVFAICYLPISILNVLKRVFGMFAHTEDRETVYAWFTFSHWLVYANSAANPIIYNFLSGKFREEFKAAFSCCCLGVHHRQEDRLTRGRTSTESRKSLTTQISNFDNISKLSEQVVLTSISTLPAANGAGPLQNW

[2] = target: T2, OR1 (Homo sapiens, UniProt O43613); design: host or cells: HEK-293T; conditions: Lang et al., 2004; cited from earlier work
T2 sequence (O43613 1-425): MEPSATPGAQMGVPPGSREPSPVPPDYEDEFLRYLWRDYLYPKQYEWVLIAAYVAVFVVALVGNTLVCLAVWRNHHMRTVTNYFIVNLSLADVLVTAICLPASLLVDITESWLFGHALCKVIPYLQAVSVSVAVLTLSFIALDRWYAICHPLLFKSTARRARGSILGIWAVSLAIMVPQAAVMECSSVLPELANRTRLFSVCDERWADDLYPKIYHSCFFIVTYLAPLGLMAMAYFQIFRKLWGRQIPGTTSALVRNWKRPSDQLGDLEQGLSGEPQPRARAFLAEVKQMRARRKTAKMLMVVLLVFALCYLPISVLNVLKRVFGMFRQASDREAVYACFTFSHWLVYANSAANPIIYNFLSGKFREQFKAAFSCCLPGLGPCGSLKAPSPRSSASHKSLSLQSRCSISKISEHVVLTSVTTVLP

[3] = tested on: OX-KO mice; assay: Cataplexy-like episodes after subcutaneous injection in OX-KO mice; type: in vivo, mouse; conditions: SC single injection at ZT0, 160 μM in 1 mL saline; for total duration of cataplexy-like episodes during the dark period: vs vehicle
Excerpt: D-CLS: total duration of cataplectic-like episodes during the dark period. V: vehicle (saline). OX-D: OX-DRAGON. TAT: TAT peptide. […] […] The dots indicate values in individual mice.
Such episodes, identified as direct transitions from wakefulness to REM sleep (Scammell et al., 2009), during the dark period are 100% specific for cataplexy in mouse models of NT1 (Fujiki et al., 2009). Correspondence between such events on polysomnographic tracings and abrupt behavioural transitions to a state of immobility was confirmed based on synchronized video tracings in a subset of mice (n=4) during treatment with vehicle and with OX-DRAGON.

[4] = tested on: OX-KO mice; assay: Wakefulness and sleep (EEG/EMG) after intracerebroventricular infusion in OX-KO mice; type: in vivo, mouse; conditions: ICV 160 μM at 5 μL/h, ZT0-6, vs vehicle (artificial cerebrospinal fluid)
Procedure: Wakefulness, non-REM sleep (NREM) and REM sleep are expressed as a percentage of the recording time. V: vehicle (artificial cerebrospinal fluid). OX-D: OX-DRAGON. TAT: TAT peptide. ZT: Zeitgeber time (i.e., time since lights were switched on). Black bars: intracerebroventricular infusion (5 μL/h from ZT0 to ZT6, with vehicle or peptides at 160 μM). * and †: P<0.05, Wilcoxon test with exact significance (Monte Carlo method) vs. vehicle (with correction for false-discovery rate) or vs. OX-DRAGON, respectively.
(§1) A biocompatible acrylic resin protection for was applied to the animal's head to protect the electrode and cannula connectors. After 1-2 weeks of post-operative recovery, the animals were connected via rotating electrical and fluid connectors respectively to thin electrical cables and to a catheter, itself connected to a precision pump for ICV infusion. The rotating connectors, cables and catheter were supported by a balanced arm to allow the animals full freedom of movement during the recordings, which were made with light: dark cycle of 12:12 hours. Wakefulness, non-REM sleep, and REM sleep were assessed based on EEG and EMG tracings with a technique previously published in detail (Bastianini et al., 2011).

[5] = tested on: OX-KO mice; assay: Wakefulness and sleep (EEG/EMG) after subcutaneous injection in OX-KO mice; type: in vivo, mouse; conditions: SC single injection at ZT0, 160 μM in 1 mL saline, vs vehicle; for time spent in REM sleep: light and dark period
Procedure: Wakefulness, non-REM sleep (NREM) and REM sleep are expressed as a percentage of the recording time. V: vehicle (saline). OX-D: OX-DRAGON. TAT: TAT peptide. ZT: Zeitgeber Time (i.e., time since lights were switched on). Each peptide was injected subcutaneously at the concentration of […] in 1 mL of vehicle at ZT0. *: P<0.05, Wilcoxon test with exact significance (Monte Carlo method) vs. vehicle with correction for false-discovery rate.
as §1
Experiments were performed as in step 3 above, except for the absence of the ICV cannula implant.

[6] = target: T1, OR2; assay: cell-based
[7] = target: T2, OR1; assay: Concentration-response reporter assay kit (Cayman n. 600240/600250) on HEK-293T cells, OR1; type: cell-based; design: host or cells: HEK-293T
[8] = tested on: WT Neuro-2a cells; assay: Immunofluorescence (anti-OXA 16-33 amide) internalization in WT Neuro-2a cells; type: cell-based, mouse; conditions: 74 μM, 1 hour, confocal microscopy
Excerpt: The panels show immunofluorescence imaging (rabbit anti-OXA 16-33 amide primary antibody, 1:200, Phoenix peptides #H-003-36) in Neuro-2a cells without expression of OR1 and OR2. […] The presence of diffuse TRITC fluorescence at the cytoplasmic level was confirmed in confocal microscopy (panel A). […] Calibration bars: 50 μm.
Because crossing the BBB requires the ability to cross endothelial cell membranes, these experiments support the ability of OX-DRAGON to cross the BBB and reach brain tissue after systemic administration.

[9] = target: T2, OR1; assay: Intracellular Ca2+ response (Fluo-4 Direct Calcium Assay) in Neuro-2a cells expressing human OR1; type: cell-based; design: expressed in transfected cells; conditions: OX-DRAGON 8.5 μM vs OXA 14.8 μM; triplicate; normalized to maximal responses
Excerpt: (§2) Panel A: L, ladder DNA. Panel B: Data are reported as mean values and standard errors of the mean on triplicate measurements. The dots indicate the individual measures. […] The arrows indicate the time of the microinjection.
(§3) Selective expression of the OR1- or OR2-coding genes in the corresponding cell lines and the absence of expression of OR1 and OR2 in WT cells were confirmed by real-time PCR from RNA extracted from the individual DNAse-treated and back-transcribed cells (FIG. 3A). Responses in terms of intracellular [Ca^2+] were assessed in triplicate using Fluo-4 Direct Calcium Assay (Invitrogen) and a Tekan Spark microplate reader, normalizing the results obtained to the maximal responses.

[10] = Solubility of the peptide; type: physicochemical
Procedure: Two batches of OX-DRAGON were synthesized by an external commercial entity (Genscript, (www.genscript.com), with purity ≥98.0% and net peptide content ≥68.0% (FIG. 2). The peptide is highly soluble […] in water, DPBS and DMSO.

[11] = target: T1, OR2; assay: Intracellular Ca2+ response (Fluo-4 Direct Calcium Assay) in Neuro-2a cells expressing human OR2; type: cell-based; design: expressed in transfected cells; conditions: OX-DRAGON 8.5 μM vs OXA 14.8 μM; triplicate; normalized to maximal responses
Excerpt: as §2, §3

[12] = tested on: control Neuro-2a cells that do not express such receptors (wild-type, WT); assay: Intracellular Ca2+ response in control wild-type Neuro-2a cells without OR1/OR2; type: cell-based, mouse; conditions: Neuro-2a cells without OR1 and OR2
Procedure: as §3

| Substance | total duration of cataplexy-like episodes during the dark period [3] | REM sleep time [4] | non-REM sleep time [4] | wakefulness time [4] | time spent awake [5] | time spent in non-REM sleep [5] | time spent in REM sleep [5] | further results |
| --- | --- | --- | --- | --- | --- | --- | --- | --- |
| PDCCRQKTCSCRLYELLHGAGNHAAGILTL [4-33 truncated sequence of OXA] | – | – | – | – | – | – | – | EC50 on OR2 relative to the native OXA protein [1]: approximately 1/7; EC50 on OR1 relative to the native OXA protein [2]: approximately 1/7 |
| YGRKKRRQRRR [TAT, cell penetrating TAT peptide of type-1 human immunodeficiency virus (HIV), reference compound] | not replicated | significant reduction in REM sleep time during the dark period | did not evoke significant effects | did not evoke significant effects | did not result in significant effects | did not result in significant effects | did not result in significant effects | – |
| YGRKKRRQRRRPDCCRQKTCSCRLYELLHGAGNHAAGILTL-NH2 (disulfide 14-20, 15-22) [OX-DRAGON] | significantly decrease | marked reduction in REM sleep time | decreased non-REM sleep time | increased wakefulness time | without exerting significant effects | without exerting significant effects | significantly decrease | EC50 [6]: 10.5 nM; duration of individual cataplexy-like episodes [3]: no significant changes; number of cataplexy-like episodes ([3]; P=0.034 one-tailed Wilcoxon): reduction in the number of cataplexy-like episodes; EC50 ([7]; HEK-293T cells, reporter assay, Hill equation fit): 67.7 nM; OR1/OR2 EC50 ratio ([7]; receptor selectivity, EC50 OR1 / EC50 OR2): 6.47 and 6.5; internalization into cells (intracellular/cytoplasmic fluorescence signal) [8]: cytoplasmic signal of diffused fluorescence; also recorded: presence of TRITC fluorescence signal at the intracellular level; intracellular [Ca2+] response of OR1-expressing cells [9]: close to the maximal ones evoked by OXA; solubility ([10]; in DMSO): 10000 µg/mL; solubility ([10]; in DPBS): 10000 µg/mL; solubility ([10]; in water): 10000 µg/mL; intracellular [Ca2+] response of OR2-expressing cells [11]: close to the maximal ones evoked by OXA; intracellular [Ca2+] response of WT cells [12]: absence of significant effects |
